Laboratory results taken from DBAASP.
In brackets after ≈: the same amount, converted by molar mass. Several values for one entry are separate records, joined by “and”; a condition that tells them apart may be missing. Identical values can stand only once. Blank lines part the entries; values can stand above or below the compound they belong to.

Tests used:
Test in all cases: ≥ marks a high value that may be exact or a test limit, other limits are often not marked, values filed in µg/mL are converted to µM
Acinetobacter baumannii = test system: Acinetobacter baumannii
[1] = test system: Staphylococcus epidermidis KCTC 3096
[2] = test system: Escherichia coli KCTC 1682
[3] = test system: Bacillus subtilis ATCC 6633
[4] = test system: Streptococcus pyogenes KCTC 3096
Campylobacter lari = test system: Campylobacter lari
[5] = test system: Acinetobacter baumannii KCTC 2508
[6] = test system: Candida albicans TIMM 1768
Campylobacter jejuni = test system: Campylobacter jejuni
[7] = test system: Bacillus subtilis KCTC 1918
[8] = test system: Trichosporon beigelii KCTC 7707
[9] = test system: Staphylococcus aureus KCTC 1621
[10] = test system: Staphylococcus aureus 1870
[11] = test system: Staphylococcus aureus 4716
[12] = test system: Escherichia coli ATCC 33694
[13] = test system: Salmonella typhimurium KCTC 1926
[14] = test system: Pseudomonas aeruginosa KCTC 1637
[15] = test system: Staphylococcus aureus 3551
Campylobacter coli = test system: Campylobacter coli
[16] = test system: Pseudomonas aeruginosa 3552
Pseudomonas aeruginosa = test system: Pseudomonas aeruginosa
Staphylococcus aureus = test system: Staphylococcus aureus
[17] = test system: Escherichia coli CCARM 1229
[18] = test system: Actinobacillus pleuropneumoniae
[19] = test system: Bacillus subtilis KCTC 3068
[20] = test system: Pseudomonas aeruginosa PAO1
Salmonella sp. = test system: Salmonella sp.
Escherichia coli K-12 = test system: Escherichia coli K-12
[21] = test system: Staphylococcus epidermidis KCTC 1917
[22] = test system: Bacillus subtilis KCTC 1021
[23] = test system: Staphylococcus aureus USA 300
[24] = test system: Escherichia coli KCTC 2571
[25] = test system: Escherichia coli KCTC 2593
Glaesserella parasuis = test system: Glaesserella parasuis
Enterococcus faecalis = test system: Enterococcus faecalis
[26] = test system: Staphylococcus aureus CCARM 3126
Aeromonas salmonicida = test system: Aeromonas salmonicida
[27] = test system: Pseudomonas aeruginosa CCARM 2002
Bacillus subtilis 168 = test system: Bacillus subtilis 168
Streptococcus iniae = test system: Streptococcus iniae
[28] = test system: Acinetobacter baumannii CCARM 12005
[29] = test system: Staphylococcus aureus CCARM 3090
[30] = test system: Salmonella typhimurium CVCC 542
[31] = test system: Salmonella typhimurium CCARM 8003
Lactococcus garvieae = test system: Lactococcus garvieae
[32] = test system: Staphylococcus aureus KCTC 1916
Escherichia coli mcr = test system: Escherichia coli mcr
Shigella flexneri = test system: Shigella flexneri
Escherichia coli = test system: Escherichia coli
Vibrio alginolyticus = test system: Vibrio alginolyticus
[33] = test system: Staphylococcus aureus ATCC 29213
[34] = test system: Pseudomonas aeruginosa KCTC 2513
[35] = test system: Staphylococcus aureus CCARM 3108
[36] = test system: Aeromonas salmonicida NCTC 7812
[37] = test system: Staphylococcus aureus CCARM 3089
[38] = test system: Staphylococcus aureus CCARM 3114
[39] = test system: Pseudomonas aeruginosa KCTC 2004
[40] = test system: Staphylococcus aureus KCTC 3881
[41] = test system: Bacillus subtilis KCTC 1022
[42] = test system: Enterococcus faecalis ATCC 29212
Fusarium oxysporum = test system: Fusarium oxysporum
[43] = test system: Micrococcus luteus CIP 5345
Escherichia coli SBS 363 = test system: Escherichia coli SBS 363
Botrytis cinerea = test system: Botrytis cinerea

MIC (Acinetobacter baumannii): 6.25 µM (≈ 15 µg/mL)
MIC [1]: 2.21 µM (≈ 5.3 µg/mL)
MIC [2]: 3.12 µM (≈ 7.51 µg/mL)
MIC [3]: 1.1 µM (≈ 2.65 µg/mL)
MIC [4]: 0.78 µM (≈ 1.88 µg/mL)
MIC (Campylobacter lari): 20.8 µM (≈ 50 µg/mL)
MIC [5]: 12.5 µM (≈ 30.1 µg/mL)
MIC [6]: 12.5 µM (≈ 30.1 µg/mL)
MIC (Campylobacter jejuni): 20.8 µM (≈ 50 µg/mL)
MIC [7]: 0.78 µM (≈ 1.88 µg/mL)
MIC [8]: 6.25 µM (≈ 15 µg/mL)
MIC [9]: 3.12 µM (≈ 7.51 µg/mL)
MIC [10]: ≥ 64 µM
MIC [11]: 4 µM (≈ 9.62 µg/mL)
MIC [12]: 6.25 µM (≈ 15 µg/mL)
MIC [13]: 0.78 µM (≈ 1.88 µg/mL)
MIC [14]: 1.56 µM (≈ 3.75 µg/mL)
MIC [15]: 1 µM (≈ 2.4 µg/mL)
MIC (Campylobacter coli): 29.4 µM (≈ 70.7 µg/mL)
MIC [16]: 8 µM and 4 µM
Structure (SMILES): CC[C@H](C)[C@H](NC(=O)CNC(=O)[C@@H](NC(=O)[C@H](CCCCN)NC(=O)[C@H](CCCCN)NC(=O)[C@H](Cc1ccccc1)NC(=O)[C@H](CC(C)C)NC(=O)[C@H](CCCCN)NC(=O)[C@H](Cc1c[nH]c2ccccc12)NC(=O)[C@@H](N)CCCCN)[C@@H](C)CC)C(=O)NCC(=O)N[C@@H](CCCCN)C(=O)N[C@@H](Cc1ccccc1)C(=O)N[C@@H](CC(C)C)C(=O)N[C@@H](Cc1cnc[nH]1)C(=O)N[C@@H](CO)C(=O)N[C@@H](C)C(=O)N[C@@H](CCCCN)C(=O)N[C@@H](CCCCN)C(=O)N[C@@H](Cc1ccccc1)C(N)=O [KWKLFKKIGIGKFLHSAKKF]

Structure (SMILES): CC[C@H](C)[C@H](NC(=O)CNC(=O)[C@H](CCCNC(=N)N)NC(=O)[C@H](Cc1ccccc1)NC(=O)[C@@H](NC(=O)[C@H](Cc1cnc[nH]1)NC(=O)[C@H](Cc1cnc[nH]1)NC(=O)[C@H](Cc1ccccc1)NC(=O)[C@@H](N)Cc1ccccc1)[C@@H](C)CC)C(=O)N[C@H](C(=O)N[C@@H](Cc1cnc[nH]1)C(=O)N[C@H](C(=O)NCC(=O)N[C@@H](CCCCN)C(=O)N[C@H](C(=O)N[C@H](C(=O)N[C@@H](Cc1cnc[nH]1)C(=O)N[C@@H](CCCNC(=N)N)C(=O)N[C@@H](CC(C)C)C(=O)N[C@H](C(=O)N[C@H](C(=O)NCC(=O)O)[C@@H](C)O)C(C)C)[C@@H](C)CC)[C@@H](C)O)C(C)C)C(C)C [FFHHIFRGIVHVGKTIHRLVTG]
MIC (Pseudomonas aeruginosa): 4.86 µM and 12.4 µM
MIC (Staphylococcus aureus): 1.21 µM (≈ 3.1 µg/mL)
MIC [17]: 4 µM (≈ 10.3 µg/mL)
MIC [18]: 6.22 µM (≈ 16 µg/mL)
MIC [19]: 2 µM (≈ 5.14 µg/mL)
MIC [20]: 50 µM (≈ 129 µg/mL)
MIC [2]: 2 µM (≈ 5.14 µg/mL)
MIC (Salmonella sp.): 6.22 µM (≈ 16 µg/mL)
MIC (Escherichia coli K-12): 12.5 µM (≈ 32.2 µg/mL)
MIC [21]: 2 µM (≈ 5.14 µg/mL)
MIC [22]: 2 µM (≈ 5.14 µg/mL)
MIC [23]: 3.1 µM (≈ 7.97 µg/mL)
MIC [24]: 1 µM (≈ 2.57 µg/mL)
MIC [25]: 1 µM (≈ 2.57 µg/mL)
MIC (Glaesserella parasuis): 3.11 µM (≈ 8 µg/mL)
MIC (Enterococcus faecalis): 1.21 µM (≈ 3.1 µg/mL)
MIC [26]: 4 µM (≈ 10.3 µg/mL)
MIC (Aeromonas salmonicida): 1.21 µM (≈ 3.1 µg/mL)
MIC [27]: 2 µM (≈ 5.14 µg/mL)
MIC (Bacillus subtilis 168): 12.5 µM (≈ 32.2 µg/mL)
MIC [9]: 4 µM (≈ 10.3 µg/mL)
MIC (Streptococcus iniae): 1.21 µM (≈ 3.1 µg/mL)
MIC [28]: 2 µM (≈ 5.14 µg/mL)
MIC [29]: 8 µM (≈ 20.6 µg/mL)
MIC [13]: 2 µM (≈ 5.14 µg/mL)
MIC [30]: 6.22 µM (≈ 16 µg/mL)
MIC [31]: 4 µM (≈ 10.3 µg/mL)
MIC (Lactococcus garvieae): 1.21 µM (≈ 3.1 µg/mL)
MIC [32]: 1 µM (≈ 2.57 µg/mL)
MIC [14]: 4 µM (≈ 10.3 µg/mL)
MIC (Escherichia coli mcr): 2.2 µM (≈ 5.66 µg/mL)
MIC (Shigella flexneri): 1.21 µM (≈ 3.1 µg/mL)
MIC (Escherichia coli): 1.21 µM (≈ 3.1 µg/mL)
MIC (Vibrio alginolyticus): 1.21 µM (≈ 3.1 µg/mL)
MIC [33]: 2.43 µM (≈ 6.25 µg/mL)
MIC [34]: 2 µM (≈ 5.14 µg/mL)
MIC [35]: 4 µM (≈ 10.3 µg/mL)
MIC [36]: ≥ 77.8 µM
MIC [37]: 8 µM (≈ 20.6 µg/mL)
MIC [38]: 4 µM (≈ 10.3 µg/mL)
MIC [39]: 2 µM (≈ 5.14 µg/mL)
MIC [40]: 2 µM (≈ 5.14 µg/mL)
MIC [41]: 1 µM (≈ 2.57 µg/mL)
MIC [42]: 1.22 µM (≈ 3.14 µg/mL)

MIC (Fusarium oxysporum): ≥ 100 µM
MIC [43]: ≥ 200 µM
MIC (Escherichia coli SBS 363): ≥ 200 µM
MIC (Botrytis cinerea): ≥ 100 µM
Structure (SMILES): NCCCC[C@H](NC(=O)[C@@H]1CCCN1C(=O)[C@@H](N)CCCN=C(N)N)C(=O)N1CCC[C@H]1C(=O)N[C@@H](CCCN=C(N)N)C(=O)N1CCC[C@H]1C(=O)N[C@@H](CCCN=C(N)N)C(=O)N1CCC[C@H]1C(=O)N[C@@H](CCCN=C(N)N)C(=O)N1CCC[C@H]1C(=O)N[C@@H](CCC(=O)O)C(N)=O [RPKPRPRPRPE]
